Assay results published in patent publication US9988407B2, “Prodrugs of prostate specific membrane antigen (PSMA) inhibitor” (THE JOHNS HOPKINS UNIVERSITY, priority 2014, dated 2018).
Entries after “also recorded” stand apart in the source; their conditions may differ.

Legend:
EAE = settings: cited from earlier work
PSMA = target: T1, PSMA (Mus musculus, UniProt O35409); test: PSMA activity in colonic or cecal mucosa of DSS-treated mice; type: in vivo; settings: DSS-induced colitis, mucosa extract
T1 construct: from tissue; host or cells: colonic or cecal mucosa of C57/B6 mice with DSS-induced colitis
Method: PSMA activity was measured using extract from mucosa;
(§1) To investigate whether PSMA can be a suitable novel therapeutic target for clinical intervention against IBD, the effect of PSMA prototype inhibitors on three most widely used murine models of IBD was tested, including DNBS-induced colitis, DSS-induced colitis, and IL-10 knockout (IL-10 KO) mice (a genetic model that develops spontaneous colitis). In all three models, PSMA inhibitor treatment dramatically ameliorated symptoms. […] The improvement of these prolapse-retracting mice was unequivocally obvious in that their body weight increased dramatically when compared to that of untreated control IL-10 KO mice (FIG. 21C).

[1] = tested on: spontaneous colitis in IL-10 KO mice; test: Spontaneous colitis in IL-10 knockout mice; type: in vivo, IL-10 KO mice (C57/B6)
Method: as §1

DSS-induced colitis = test: DSS-induced murine model of colitis; type: in vivo, C57/B6 mice
Method: Disease activity index (DAI), which positively correlated with the disease severity, was used as a measure for clinical activity. * P<0.05;
as §1

[2] = cited from earlier work
[3] = PK of JAM0388 after oral gavage, 2-PMPA in brain and plasma; type: in vivo; settings: 30 mg/kg equivalent of 2-PMPA by oral gavage
[4] = Metabolic stability in mouse plasma; type: in vitro ADME; settings: 10 μM, 37° C.
Method: (§2) For metabolic stability, plasma (mouse, dog, monkey and human) and liver microsomes (mouse, dog, monkey and human) were used. For stability, prodrugs (10 μM) were spiked in each matrix and incubated in an orbital shaker at 37° C. At predetermined times (0, 30 and 60 min), 100 μL aliquots of the mixture in triplicate were removed and the reaction quenched by addition of three times the volume of ice cold acetonitrile spiked with the internal standard (losartan 5 μM). The samples were vortexed for 30 s and centrifuged 12000 g for 10 min. 50 μL supernatant diluted with 50 μL water was transferred to a 250 μL polypropylene vial sealed with a Teflon cap. Prodrug disappearance was monitored over time using a liquid chromatography and tandem mass spectrometry (LC/MS/MS) method as described below.
(§3) For LC/MS/MS, prodrugs were separated with Thermo Scientific Accela UPLC system coupled to Accela open autosampler on an Agilent C18 (100×2.1 mm id) UPLC column. The autosampler was temperature controlled and operating at 10° C. The mobile phase used for the chromatographic separation was composed of acetonitrile/water containing 0.1% formic acid and was run at a flow rate of 0.5 mL/minute for 4.5 minutes using gradient elution. The column effluent was monitored using TSQ Vantage triple-quadrupole mass spectrometric detector, equipped with an electrospray probe set in the positive ionization mode. Samples were introduced into the ionization source through a heated nebulized probe (350° C.).
(§4) For quantification of compound remaining, disappearance of prodrugs was measured from ratio of peak areas of analyte to IS. Percentage remaining was calculated in the following manner: […]

[5] = Metabolic stability in mouse liver S9; type: in vitro ADME; settings: Mouse S9, 10 μM, 37° C.
[6] = Metabolic stability in human liver microsomes; type: in vitro ADME; settings: 10 μM, 37° C.
Method: as §2, §3, §4

[7] = In vivo pharmacokinetics in mice, peroral, bioanalysis method 1 (total prodrug exposure); settings: mice, oral dosing
Method: Blood was obtained via cardiac puncture and tissue dissected at 0 min, 15 min, 30 min, 1 h, 2 h, and 4 h post dose (n=3 per time point). Single time point studies were conducted at 30 min (N=3) following dosing. Plasma was harvested from blood by centrifugation. Mean concentration-time data was used for pharmacokinetic (PK) analysis. Non-compartmental-analysis module in WinNonlin® (version 5.3) was used to assess pharmacokinetic parameters. Peak plasma concentrations (Cmax) and time to Cmax (Tmax) were the observed values. Area under the curve (AUC) was calculated by log-linear (p.o.) trapezoidal rule to the end of sample collection (AUClast) and extrapolated to infinity (AUC0-∞) by dividing the last quantifiable concentration by the terminal disposition rate constant (ke). Terminal half-life (t1/2) was estimated from first order kinetics: t1/2=0.693/ke.
Briefly, prior to extraction, frozen samples were thawed on ice. For plasma extraction, 50 μL of the calibration standards or samples were transferred into silanized microcentrifuge tubes. Sample preparation involved a single liquid extraction by addition of 300 μL of methanol as extraction solution with internal standard (i.e., 5 μM of 2-PMSA in methanol), followed by vortexing for 30 s and then centrifugation at 12000 g for 10 min. Supernatant was transferred (˜250 μL) and evaporated to dryness at 40° C. under a gentle stream of nitrogen. The residue was reconstituted with 100 μL of derivatizing agent, n-butanol with 3N HCl, and samples were vortexed. The samples were heated at ˜60 OC in a shaking water bath for 30 min. At the end of 30 min, the derivatized samples were allowed to cool at room temperature and dried again for removal of derivatizing reagent, under a gentle stream of nitrogen. The residue was reconstituted in 100 μL of 30% acetonitrile in water v/v. The samples were vortexed and centrifuged again. ˜80 μL supernatant was transferred to a 250 μL polypropylene vial sealed with a Teflon cap and a volume of 10 μL was injected onto the ultra-performance liquid chromatography (UPLC) instrument for quantitative analysis. Chromatographic analysis was performed using an Accela™ ultra high-performance system consisting of an analytical pump, and an autosampler coupled with TSQ Vantage mass spectrometer (Thermo Fisher Scientific Inc., Waltham Mass.). […] The mobile phase used was composed of 0.1% formic acid in acetonitrile and 0.1% formic acid in H2O with gradient elution, starting with 20% (organic) linearly increasing to 65% up to 2.5 min, maintaining at 65% (2.5-3.5 min) and reequilibrating to 30% by 5 min. The total run time for each analyte was 5.0 min.

[8] = Metabolic stability in mouse liver microsomes; type: in vitro ADME; settings: 10 μM, 37° C.
Method: as §2, §3, §4

[9] = In vitro metabolic stability screen in plasma and liver subcellular fractions (results in words); type: in vitro ADME; settings: 60 min incubation
Method: as §2, §3
For quantification of compound remaining, disappearance of prodrugs was measured from ratio of peak areas of analyte to IS. Percentage remaining was calculated in the following manner:
In general, the prodrugs were screened by an in vitro metabolic stability screen, and if positive, followed by an in vivo single time point pharmacokinetic study, and in select cases, an in vivo full time course pharmacokinetic study (FIG. 3). In this Example, the four acidic functional groups in 2-PMPA were systematically capped. The carboxylic acids were first masked with simple alkyl esters (Compounds 1, 2, and 3). In vitro chemical and metabolic stability of the prodrugs then were conducted, following 60 min incubation in plasma stability screens for prodrugs.

[10] = Metabolic stability in human plasma; type: in vitro ADME; settings: 10 μM, 37° C.
Method: as §2, §3, §4

[11] = In vivo pharmacokinetics in mice, peroral, bioanalysis method 2 (2-PMPA release); settings: mouse, in vivo
Method: Blood was obtained via cardiac puncture and tissue dissected at 0 min, 15 min, 30 min, 1 h, 2 h, and 4 h post dose (n=3 per time point). Single time point studies were conducted at 30 min (N=3) following dosing. Plasma was harvested from blood by centrifugation. Mean concentration-time data was used for pharmacokinetic (PK) analysis. Non-compartmental-analysis module in WinNonlin® (version 5.3) was used to assess pharmacokinetic parameters. Peak plasma concentrations (Cmax) and time to Cmax (Tmax) were the observed values. Area under the curve (AUC) was calculated by log-linear (p.o.) trapezoidal rule to the end of sample collection (AUClast) and extrapolated to infinity (AUC0-∞) by dividing the last quantifiable concentration by the terminal disposition rate constant (ke). […] The tissues were stored in −20° C. for 1 h and then homogenized. The calibration curve for the tissues was developed using naïve mouse brains from untreated animals as a matrix. For sciatic nerve, the nerves were weighed and homogenized in 50 μL methanol and the calibration curve was developed using naïve sciatic nerves from untreated animals as a matrix. The samples were vortexed and centrifuged. […] Supernatant was dried under a gentle stream of nitrogen at 45° C. and the residue reconstituted with 75 μL of acetonitrile and vortexed. 25 μL of derivatizing agent N-tert-Butyldimethysilyl-N-methyltrifluoro-acetamide (MTBSTFA) was added to microcentrifuge tubes, vortexed, and heated at ˜60 OC for 40 min. At the end of 40 min, the derivatized samples ˜75 μL were transferred to a 250 μL polypropylene vials and were analyzed via LC/MS/MS. Chromatographic analysis was performed using an Accela™ ultra high-performance system consisting of an analytical pump, and an autosampler coupled with TSQ Vantage mass spectrometer (Thermo Fisher Scientific Inc., Waltham Mass.). […] The total run time for each analyte was 5.0 min. Chromatographic analysis will be performed on Accela UPLC.

T1 sequence (O35409 whole entry): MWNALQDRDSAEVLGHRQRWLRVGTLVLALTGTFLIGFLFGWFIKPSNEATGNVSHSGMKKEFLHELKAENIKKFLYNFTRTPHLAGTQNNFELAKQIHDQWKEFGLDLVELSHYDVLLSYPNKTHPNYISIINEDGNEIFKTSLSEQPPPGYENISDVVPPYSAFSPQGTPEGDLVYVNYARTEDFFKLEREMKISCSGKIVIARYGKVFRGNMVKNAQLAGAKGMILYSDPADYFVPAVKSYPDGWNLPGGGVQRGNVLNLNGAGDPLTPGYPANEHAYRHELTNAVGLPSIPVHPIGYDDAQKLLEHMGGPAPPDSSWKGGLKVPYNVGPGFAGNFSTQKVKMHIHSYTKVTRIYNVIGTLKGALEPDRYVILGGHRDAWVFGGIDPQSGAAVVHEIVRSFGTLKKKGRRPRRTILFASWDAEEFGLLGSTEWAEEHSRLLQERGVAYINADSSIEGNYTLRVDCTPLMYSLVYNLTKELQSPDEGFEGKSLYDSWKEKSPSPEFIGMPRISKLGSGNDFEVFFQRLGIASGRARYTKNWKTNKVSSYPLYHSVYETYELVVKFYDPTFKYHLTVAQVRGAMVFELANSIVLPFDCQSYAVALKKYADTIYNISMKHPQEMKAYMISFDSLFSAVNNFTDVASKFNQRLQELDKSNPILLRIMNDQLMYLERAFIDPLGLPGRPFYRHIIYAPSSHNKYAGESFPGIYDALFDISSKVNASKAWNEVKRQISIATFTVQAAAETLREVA

Compound: O=C(O)CCC(CP(=O)(O)O)C(=O)O (centres unmarked) [Compound 2-PMPA, 2-phosponomethyl pentanedioic acid]
- cognitive function (EAE; EAE mice, Barnes maze): improves cognitive function; also recorded: cognition was significantly improved
- brain NAAG (EAE; EAE mice, post mortem analysis): elevates NAAG; also recorded: significant increase in brain NAAG
- physical severity of EAE (EAE; EAE mice): no difference in physical severity was observed
- fear conditioning, fear memory (EAE; EAE+2-PMPA vs EAE+Vehicle): significant difference between fear memory
- PSMA activity in colonic or cecal mucosa (PSMA): effectively suppresses PSMA activity
- disease severity (macroscopic disease, prolapse), words ([1]; 100 mg/kg for 2 weeks): not only improvement of disease but even retraction of prolapse; also recorded: significantly reduced the disease severity
- complete retraction of prolapse, share of treated mice ([1]; 2 of the 20 mice): 10%
- efficacy ([1]; i.p. administration at 100 mg/kg, IL 10 knock out model): excellent efficacy
- dose response (DSS-induced colitis; 1, 10, and 100 mg/kg i.p., murine IBD models): dose dependent effect with 100 mg/kg provided the most benefit
- efficacy (DSS-induced colitis; i.p. administration at 100 mg/kg, DSS model): excellent efficacy
- oral availability F ([2]; 2-PMPA itself): < 1%
- concentrations in the brain ([2]; after 50-100 mg/kg intraperitoneal injection (i.p.) doses): 30 to 50 µM

Compound: 4-((diphenoxyphosphoryl)methyl)-5-(((isopropoxycarbonyl)oxy)methoxy)-5-oxopentanoic acid [Compound 30]
- brain levels of 2-PMPA ([3]; brain at 30 min and 5 h): low at both time points
- release of 2-PMPA in plasma ([3]; plasma at 30 min and 5 h): excellent release of 2-PMPA in plasma

Compound: CCOC(=O)CCC(CP(=O)(O)O)C(=O)OCC (centres unmarked) [Compound 2, [5-Ethoxy-2-(ethoxycarbonyl)-5-oxopentyl]phosphonic acid]
- Percentage remaining ([4]; 0 min): 100%
- Percentage remaining ([4]; 30 min): 99%
- Percentage remaining ([4]; 60 min): 83%
- Percentage remaining ([5]; 0 min): 100%
- Percentage remaining ([5]; 30 min): 103%
- Percentage remaining ([5]; 60 min): 103%
- Percentage remaining ([6]; 0 min): 100%
- Percentage remaining ([6]; 30 min): 88%
- Percentage remaining ([6]; 60 min): 73%
- permeability in vivo [7]: showed the most permeability
- Percentage remaining ([8]; 0 min): 100%
- Percentage remaining ([8]; 30 min): 99%
- Percentage remaining ([8]; 60 min): 88%
- in vitro metabolic stability [9]: too stable
- Percentage remaining ([10]; 0 min): 100%
- Percentage remaining ([10]; 30 min): 81%
- Percentage remaining ([10]; 60 min): 59%
- stability of carboxylic esters in vivo [11]: too stable in vivo
